Results on five molecules are retold here after patent US8304206B2, “Mass spectrometry assays for identifying compounds that activate deacetylases” (Sirtris Pharmaceuticals, Inc., priority 2005, dated 2012).

Experiment [1] deals with T1, SIRT1 (Homo sapiens, UniProt Q96EB6).
T1 sequence (Q96EB6 1-747): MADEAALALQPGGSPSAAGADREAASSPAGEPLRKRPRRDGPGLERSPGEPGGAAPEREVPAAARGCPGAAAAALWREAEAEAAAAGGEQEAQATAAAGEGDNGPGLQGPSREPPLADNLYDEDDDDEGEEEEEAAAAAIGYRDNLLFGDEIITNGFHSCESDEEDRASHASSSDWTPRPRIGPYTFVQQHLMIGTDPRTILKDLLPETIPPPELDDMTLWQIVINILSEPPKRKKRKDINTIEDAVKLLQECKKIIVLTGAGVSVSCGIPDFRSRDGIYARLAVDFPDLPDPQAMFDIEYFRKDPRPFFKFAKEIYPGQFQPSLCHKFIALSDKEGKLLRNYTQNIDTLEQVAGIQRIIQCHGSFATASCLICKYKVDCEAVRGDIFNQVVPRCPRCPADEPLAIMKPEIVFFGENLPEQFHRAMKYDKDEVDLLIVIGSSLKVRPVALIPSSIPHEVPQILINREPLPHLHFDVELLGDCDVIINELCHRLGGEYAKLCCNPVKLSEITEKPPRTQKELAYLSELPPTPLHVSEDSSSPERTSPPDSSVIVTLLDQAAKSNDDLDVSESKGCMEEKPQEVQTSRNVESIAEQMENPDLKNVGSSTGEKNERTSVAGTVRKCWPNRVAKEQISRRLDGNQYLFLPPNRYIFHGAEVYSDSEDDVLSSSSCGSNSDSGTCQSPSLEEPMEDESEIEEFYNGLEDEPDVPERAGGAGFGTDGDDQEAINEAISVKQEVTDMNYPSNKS
Put plainly: SIRT1 Km for NAD+ (mass spectrometry). The experiment is classed as biochemical. Particulars: 50 μM Acetylated Peptide Substrate, 1% DMSO.

Experiment [2] has as its target T1, SIRT1. Particulars: Sirt1, Fluorescent, cited from earlier work.
Experiment [3] addresses T2, Sirt2 (Homo sapiens, UniProt Q8IXJ6).
T2 sequence (Q8IXJ6 1-389): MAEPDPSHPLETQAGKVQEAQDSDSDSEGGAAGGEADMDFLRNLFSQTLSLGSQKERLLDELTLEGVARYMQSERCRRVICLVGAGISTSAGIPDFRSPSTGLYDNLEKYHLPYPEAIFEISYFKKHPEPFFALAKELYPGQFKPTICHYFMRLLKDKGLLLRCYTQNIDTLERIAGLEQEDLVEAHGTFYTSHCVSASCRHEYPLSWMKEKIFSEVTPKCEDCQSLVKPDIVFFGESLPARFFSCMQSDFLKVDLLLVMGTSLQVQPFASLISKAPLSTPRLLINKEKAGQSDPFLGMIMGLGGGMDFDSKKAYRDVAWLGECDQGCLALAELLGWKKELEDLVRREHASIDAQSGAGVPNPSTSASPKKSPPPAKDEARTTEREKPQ
Particulars: Sirt2, Fluorescent, cited from earlier work.

Experiment [4] addresses T3, Sirt3 (Homo sapiens, UniProt Q9NTG7).
T3 sequence (Q9NTG7 1-399): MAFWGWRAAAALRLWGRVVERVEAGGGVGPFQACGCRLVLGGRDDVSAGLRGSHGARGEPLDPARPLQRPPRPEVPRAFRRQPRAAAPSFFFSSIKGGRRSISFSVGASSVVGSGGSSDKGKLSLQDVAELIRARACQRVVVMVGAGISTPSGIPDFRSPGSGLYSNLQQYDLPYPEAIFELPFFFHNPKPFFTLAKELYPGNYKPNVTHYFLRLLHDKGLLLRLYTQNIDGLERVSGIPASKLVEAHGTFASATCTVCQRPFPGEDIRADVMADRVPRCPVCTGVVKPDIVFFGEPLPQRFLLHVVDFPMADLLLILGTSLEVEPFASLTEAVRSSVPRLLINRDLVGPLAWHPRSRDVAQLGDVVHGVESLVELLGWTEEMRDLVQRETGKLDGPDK
Particulars: Sirt3, Fluorescent, cited from earlier work.

Experiment [5] addresses T1, SIRT1. Particulars: Sirt1, Nicotinamide release, read-out: NAD Km, cited from earlier work.
Experiment [6] addresses T1, SIRT1. Particulars: Sirt1, FRET; peptide p53 20 mer (aa 372-387) *FL; read-out: NAD Km; cited from earlier work.
The target in experiment [7] is T2, Sirt2. Particulars: Sirt2, FRET; peptide p53 20 mer (aa 372-387) *FL; read-out: NAD Km; cited from earlier work.
The target in experiment [8] is T1, SIRT1. Particulars: Sirt1, Nicotinamide release; peptide p53 19 mer (aa 368-386) no FL; read-out: NAD Km; cited from earlier work.
Experiment [9] deals with T1, SIRT1. Put plainly: SIRT1 mass spectrometry assay (screening for activation). It counts as biochemical.
The subject of experiment [10] is NCI-H358 cells. Put plainly: Cellular ATP Assay (ATPLite 1Step normalized to AlamarBlue viability). It counts as cell-based, human. Particulars: Homo sapiens, NCI-H358; compounds that raised intracellular ATP levels; 48 hours; read-out: ED50 ATP ASSAY. The procedure: Cellular ATP levels are an indirect measurement of cellular metabolic rates and, by extension, mitochondrial function. […] The ATP assay is combined with a cellular viability assay so that cellular ATP levels can be normalized to viable cells. Cellular ATP levels were measured using the ATPLite 1Step Kit (PerkinElmer) and cellular viability was measured using the cell permeable dye, AlamarBlue™.
The Cellular ATP Assay is a multiplexed assay that measures both ATP levels and viability of a given cell sample. This assay is run in a 96-well Assay Plate and data are reported as the [ATP]/viability for each well in the Assay Plate.
The ATPLite 1Step™ Kit is a single-step luminescent cell-based assay for detection of ATP. The kit contains lyophilized substrate mixture, comprised of D-luciferin and the firefly (Photinus pyralis) enzyme luciferase. Additionally, the kit contains a detergent-based reconstitution buffer that induces the lysis of cellular membranes. The luciferase in the assay mixture catalyzes a reaction between the free cellular ATP and D-luciferin to produce bioluminescence according to the schematic reaction outlined below. […]
The AlamarBlue™ Assay is a single-step assay that utilizes a soluble, non-toxic, cell permeable dye that is added to cell growth media. […] The reduced dye product gives a fluorescent signal which can be monitored with a fluorescence plate reader (excitation 545 nm and emission 575 nm). The amount of fluorescence generated in a given well is proportional to the number of viable cells. […]
In this assay NCI-H358 cells (obtained from the American Tissue Culture Collection, ATCC) were seeded in 96 well microplates (10^4 cells/well). […] Cell microplates were incubated with dye for 2 hours under growth conditions, and fluorescence was subsequently measured using a plate reader. […] Luminescence was then measured using a plate reader. The ATP signal for each well, measured by the luminescence scan, was normalized to its corresponding cell viability value, measured by the fluorescence scan, to generate the average ATP level per viable cell unit (ATP/vCell). […]
(In general: ATP-based viability assays read luminescence as a measure of living cells.)

Experiment [11] addresses T1, SIRT1. Put plainly: Effect of compounds on the Km of SIRT1 for Acetylated Peptide Substrate (mass spectrometry). The experiment is classed as biochemical. Particulars: vs DMSO Km.
In experiment [12] the test system is NCI-H358 cells. Put plainly: Western blot of mitochondrial mass biomarkers. The experiment is classed as cell-based, human. Particulars: 48 hours; 0, 1, 10 or 100 uM. How it is done:
Western blots were conducted to correlate an observed increase in cellular ATP levels upon exposure of cells to a sirtuin activating compound to an increase in mitochondrial mass. […] Cell lysates were then prepared and specific mitochondrial proteins were quantitated by western analysis using antibodies specific to the following proteins: Succinate-Ubiquinol Oxidoreductase (Mitochondrial Complex II Protein, mouse monoclonal, InVitrogen, Cat. #A11142); ATP synthase F1F0 (Mitochondrial Complex V Protein, mouse monoclonal, InVitrogen, Cat.# A21350); NADH-Ubiquinol Oxidoreductase (Mitochondrial Complex I Protein, mouse monoclonal, InVitrogen, Cat. #A21344). Normalization was to alpha tubulin using a rabbit polyclonal (Santa Cruz Biotech, Cat # SC-9104). Secondary antibody used for specific protein detection was AlexaFluor 680 conjugated […] IgG (Goat) (Rockland Immunochemicals, Cat.#610-132-121) and for tubulin expression was IRDye 800 goat anti-mouse IgG (InVitrogen Cat. # A21076). Protein quantification was preformed using infrared dye labeled secondary antibodies followed by blot scan using the Licor® Odyssey® scanner.
For orientation: In western blotting, separated proteins are transferred to a membrane and probed.

The mark [13] stands for this setting: peptide p53 (aa 317-320) *FL, read-out: NAD Km.

Read-outs that look alike come from different tables or passages of the source. No end group written: not given here.

For the molecule `NC(=O)c1ccc[n+]([C@@H]2O[C@H](COP(=O)([O-])OP(=O)(O)OC[C@H]3O[C@@H](n4cnc5c(N)ncnc54)[C@H](O)[C@@H]3O)[C@@H](O)[C@H]2O)c1` [NAD^+], the Km (in general, the substrate concentration at which the rate is half of its maximum) in experiment [1] is 220 µM; in [2] (peptide p53 (aa 379-382) *FL, read-out: NAD Km), 558 µM; in experiment [3] (setting [13]) it was 547 µM; in [4] (setting [13]) it was 2030 µM; in experiment [5] (peptide p53 (aa 368-386) *FL), 192 µM; in experiment [5] (peptide p53 (aa 368-386) no FL), 132 µM. For the same molecule, the results for the Km in [6], in experiment [7] and in [8] were 90 µM, 42 µM and 133 µM, respectively.

For `Cc1nc(-c2cccc(Nc3nc4ccccc4s3)c2)cs1` [compound 94], the “FOLD ACTIVATION MS” value in experiment [9] (activation of SIRT1, mass spectrometry) was “B (Fold Activation<250%)”. Besides, the EC50 in experiment [9] (activation of SIRT1, 0.5 μM peptide substrate (SEQ ID NO: 34), 120 μM NAD+, 10 nM SIRT1, 25 min, read-out: ED50 MS ASSAY) is less than 50 µM; in experiment [10], more than 150 µM.

Consider `Oc1ccc(C=Cc2cc(O)cc(O)c2)cc1` [resveratrol], for which the “decrease of Km for peptide substrate” value is 2% in [11] (1.2 μM resveratrol); 14% in experiment [11] (3.7 μM resveratrol); 14% in experiment [11] (11 μM resveratrol); 32% in [11] (33 μM resveratrol); 46% in [11] (100 μM resveratrol). For the same molecule, in experiment [12], the “levels of mitochondrial mass biomarkers” value was “increases in the levels of mitochondrial mass biomarkers”.

“p53 (aa 317-320) *FL (QPKK; also: fluorescent label; UniProt P04637 317-320, looked up, fragment)”: the results for the Km in experiment [3] (read-out: Peptide Km) and in [4] (read-out: Peptide Km) were 186 µM and 32 µM, respectively.

Turning to “p53 (aa 379-382) *FL (RHKK(Ac); not fully specified (C-terminus); printed as Arg-His-Lys-Lys; also: fluorescent label; UniProt P04637 379-382, looked up, fragment)”, the Km in experiment [2] (read-out: Peptide Km) is 64 µM.
